Test results from PMC8667925, “New 1,2,4-oxadiazole derivatives with positive mGlu4 receptor modulation activity and antipsychotic-like properties” (Journal of Enzyme Inhibition and Medicinal Chemistry, 2021).
“Also recorded” adds a separate entry of the source.

Assays:
[1] = test system: Albino Swiss mice; experiment: modified stress-induced hyperthermia (SIH) in singly housed mice; assay type: in vivo
Description: (§1) The compounds were dissolved in a small amount of 100% EtOH and then adjusted with 20% cyclodextrin, and the pH was adjusted to 6.0. The investigated compounds were administered intraperitoneally (i.p.) 60 min before the behavioural test. Control drugs i.e. diazepam, clozapine and imipramine (Sigma–Aldrich, St. Louis, USA), were administered i.p. 60 min before the behavioural test. Cyclodextrin (20%) was used as a vehicle. All solutions were prepared immediately prior to the experiments and were administered at a constant volume of 10 ml/kg.
The procedure for modified stress-induced hyperthermia was adapted from Van der Heyden[93] and based on the procedure introduced by Borsini[94]. Each experimental group consisted of eight to ten animals. The animals were housed individually in a 26 × 21 × 14 cm Macolon cage 24 h before testing. For this assay, the body temperature was measured for each mouse at t = 0 min (T1) and t = +15 min (T2). Albino Swiss mice were placed into a new cage immediately following T1, with the difference in temperature (T2−T1) used as the measure of stress-induced hyperthermia. […] A comparison between T1 in vehicle-treated mice and those administered the test compound was used to determine whether the agent affects body temperature alone. Diazepam (5 mg/kg) was used as the positive control. The rectal temperature was measured to the nearest 0.1 °C with a Physitemp Theralert thermometer, TH-5, Clifton NJ, USA, with the temperature sensor for mice, Type T, Copper-Constantan Thermocouple, Braintree Scientific Inc. The lubricated thermistor probe (2 mm diameter) was inserted 20 mm into the rectum. The mouse was held at the base of the tail during this determination, and the thermistor probe was left in place until a constant reading was obtained for 15 s. The effects of the investigated compounds on the SIH response were investigated after administration of the compounds at doses of 5, 10 and 20 mg/kg.

[2] = biological target: T1, mGlu4 receptor (Homo sapiens, UniProt Q14833); experiment: forskolin-stimulated cAMP assay, PAM mode (EC20 of L-Glu), T-REx 293 cells; assay type: cell-based; conditions: for EC50 / Emax / mGlu4 receptor PAM activity: PAM mode; for EC50: EC20 (3 µM) L-Glu, T-REx 293 cells expressing human mGlu4 receptor; for EC50 / Emax / Fold shift of L-Glu dose-response curve: SEM where given; for Emax: T-REx-293, read-out: GluMax; for Emax / mGlu4 receptor PAM activity: human mGlu4; for Fold shift of L-Glu dose-response curve: in the presence of 10 µM of compound
T1 construct: mGlu4 receptor NM_000841, mGlu7 receptor NM_000844.2, and mGlu8 receptor NM_000845; expressed in transfected cells; host or cells: T-REx 293
Description: The activity of the compounds was assessed in vitro in a forskolin-stimulated cAMP assay in T-REx 293 cells expressing human mGlu4 receptors in the presence of an EC20 concentration of L-Glu; a PAM was identified if it potentiated cAMP inhibition by the Gi/o-dependent pathway of mGlu4 receptor activation; i.e. if it was able to produce a leftward shift in the potency of the endogenous agonist.
Determination of the intracellular cAMP through a homogeneous time-resolved fluorescence (HTRF) cAMP dynamic 2 kit from Cisbio (Codolet, France) was described previously by Chruścicka et al.[91]. Briefly, cells were grown in DMEM supplemented with 10% foetal bovine serum (FBS) (tetracycline free). Forty-eight hours before the experiments, mGlu receptor expression was induced by the addition of 0.75 µg/mL tetracycline. Twenty hours before the experiment, FBS and L-Glu were removed from the medium. Thereafter, the cells were scraped and centrifuged. A cell pellet was suspended in Hanks-HEPES (130 mM NaCl, 5.4 mM KCl, 1.8 mM CaCl2, 0.8 mM MgSO4, 0.9 mM NaH2PO4, 20 mM HEPES, and 3.25 mM glucose; pH 7.4). Then, the cell suspension was incubated in the presence of 10 µM forskolin (or 3 µM forskolin for mGlu7 receptor), the agonist L-glutamate and a compound for 5 min. Next, 10 µl of the cell suspension was mixed with 5 µl of cAMP-d2 conjugate and 5 µL of anti-cAMP cryptate conjugate. After 1 h of incubation at rt, the fluorescence at 620 nm and 665 nm was read (Tecan Infinite M1000). The results were calculated as the 665 nm/620 nm ratio multiplied by 10^4. Each sample was prepared in triplicate.
Statistical calculations were performed using GraphPad Prism 5.04 software (GraphPad Software, La Jolla, CA, USA). The curves were fitted to a 3-parametric logistic equation, allowing for the determination of EC50 values. Each data point was analysed in triplicate.

[3] = test system: Albino Swiss mice; experiment: DOI-induced head twitch test (HTR); assay type: in vivo; conditions: over the doses 2.5, 5 and 10 mg/kg i.p.; DOI 2.5 mg/kg i.p.
Description: as §1
The experiments were performed according to the procedure described in our previous studies[75]^,[80]. Briefly, to habituate mice to the experimental environment, each animal was transferred to a 12 cm (diameter) × 20 cm (height) glass cage lined with sawdust 30 min before treatment. Test compounds were administered intraperitoneally (i.p.) at doses of 2.5, 5, and 10 mg/kg body weight 60 min before the test was performed. The head twitch response (HTR) in mice was induced by DOI (2.5 mg/kg, i.p.). Immediately after treatment, the number of head twitches was counted during a 20 min session. Haloperidol and clozapine were used as the reference compounds at active doses of 0.2 and 5 mg/kg, respectively.

T1 sequence (Q14833 33-912): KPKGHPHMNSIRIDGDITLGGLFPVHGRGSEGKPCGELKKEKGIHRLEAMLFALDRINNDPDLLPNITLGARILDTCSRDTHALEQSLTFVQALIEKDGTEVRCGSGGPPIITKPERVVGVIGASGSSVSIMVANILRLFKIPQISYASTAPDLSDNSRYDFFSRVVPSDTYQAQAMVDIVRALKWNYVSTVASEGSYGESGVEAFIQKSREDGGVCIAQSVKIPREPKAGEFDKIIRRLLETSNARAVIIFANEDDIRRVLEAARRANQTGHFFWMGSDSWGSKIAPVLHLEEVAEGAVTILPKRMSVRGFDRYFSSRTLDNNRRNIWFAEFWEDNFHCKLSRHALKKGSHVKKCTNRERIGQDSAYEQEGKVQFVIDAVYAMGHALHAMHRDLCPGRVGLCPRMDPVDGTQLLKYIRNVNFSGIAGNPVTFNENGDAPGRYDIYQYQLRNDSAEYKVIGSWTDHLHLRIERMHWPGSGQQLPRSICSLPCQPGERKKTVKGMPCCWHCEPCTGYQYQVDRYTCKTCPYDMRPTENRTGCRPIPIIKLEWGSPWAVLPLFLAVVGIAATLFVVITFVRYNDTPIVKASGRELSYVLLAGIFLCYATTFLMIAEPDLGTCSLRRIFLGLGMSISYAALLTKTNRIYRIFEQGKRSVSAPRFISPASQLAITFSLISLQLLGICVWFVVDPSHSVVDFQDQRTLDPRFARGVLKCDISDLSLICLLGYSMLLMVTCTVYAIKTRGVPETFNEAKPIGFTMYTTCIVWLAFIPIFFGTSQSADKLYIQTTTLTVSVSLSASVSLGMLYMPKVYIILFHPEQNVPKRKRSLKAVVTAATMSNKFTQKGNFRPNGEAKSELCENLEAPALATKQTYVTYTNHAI

Row | SMILES | effect on SIH response ([1]; 5 mg/kg i.p., 60 min before test) | EC50 [2] | Emax [2] | Fold shift of L-Glu dose-response curve [2] | mGlu4 receptor PAM activity [2] | effect on SIH response ([1]; over the doses 5, 10 and 20 mg/kg i.p.) | effect on DOI-induced HTR [3]
1 | CN1C(=O)CN=C(c2ccccc2)c2cc(Cl)ccc21 [diazepam, reference compound] | significantly reduced SIH | – | – | – | – | – | –
2 | COc1ccccc1-c1nc(-c2ccc(NC(=O)c3ccccn3)cc2Cl)no1 [Compound 54] | – | 0.75 µM | 111% | 2.2 | – | – | –
3 | COc1cc(NC(=O)c2ccccn2)ccc1-c1noc(-c2ccc(Cl)cc2)n1 [Compound 36] | – | 1.98 µM | 157% | 2.0 | – | – | –
4 | O=C(Nc1ccc(-c2noc(-c3ccccc3Cl)n2)cc1)c1ccccn1 [Compound 17d] | – | 3.7 µM | 116% | 1.8 | – | – | –
5 | O=C(Nc1ccc(-c2noc(-c3ccc(F)cc3Cl)n2)c(Cl)c1)c1ccccn1 [Compound 53] | – | 1.35 µM | 119% | 2.1 | – | – | –
6 | O=C(Nc1ccc(-c2noc(-c3ccccc3)n2)c(C(F)(F)F)c1)c1ccccn1 [Compound 59] | – | 0.74 µM | 150% | 7.6 | – | – | –
7 | COc1cc(NC(=O)c2ccccn2)ccc1-c1noc(-c2ccc(F)cc2Cl)n1 [Compound 38] | – | 1.98 µM | 124% | 4.6 | – | – | –
8 | COc1cc(NC(=O)c2cccc(Cl)n2)ccc1-c1noc(-c2ccccc2Cl)n1 [Compound 41] | – | 1.92 µM | 115% | 4.1 | – | – | –
9 | COc1ccc(-c2nc(-c3ccc(NC(=O)c4cccs4)cc3)no2)cc1 [Compound 17c] | – | – | – | – | not tolerated | – | –
10 | O=C(Nc1ccc(-c2noc(-c3ccccc3Cl)n2)c(Cl)c1)c1cccc(Cl)n1 [Compound 51] | – | – | – | – | unable to modulate mGlu4 receptor activity | – | –
11 | COc1ccc(Cl)c(C(=O)Nc2ccc(-c3noc(-c4ccccc4Cl)n3)c(OC)c2)n1 [Compound 42] | – | – | – | – | did not potentiate cAMP inhibition | None of the administered doses of compound 42 statistically affected the SIH; also recorded: failed to alter SIH | failed to alter SIH and block DOI-induced HTR
12 | COc1cc(NC(=O)c2cc(F)cc(F)n2)ccc1-c1noc(-c2ccccc2Cl)n1 [Compound 43] | – | 2.5 µM | 134% | 5.0 | – | – | –
13 | COc1cc(NC(=O)c2ncc(Cl)cc2F)ccc1-c1noc(-c2ccccc2Cl)n1 [Compound 40] | – | – | – | – | did not potentiate cAMP inhibition | – | –
14 | COc1cc(NC(=O)c2cccc(F)n2)ccc1-c1noc(-c2ccccc2F)n1 [Compound 47] | – | 0.89 µM | 121% | 6.9 | – | – | –
15 | Cc1cc(NC(=O)c2ccccn2)ccc1-c1noc(-c2ccccc2)n1 [Compound 61] | – | 1.65 µM | 128% | 5.1 | – | – | –
16 | COc1cc(NC(=O)c2nc(Cl)ccc2Cl)ccc1-c1noc(-c2ccccc2F)n1 [Compound 48] | – | – | – | – | did not potentiate cAMP inhibition | – | –
17 | COc1cc(NC(=O)c2ccncn2)ccc1-c1noc(-c2ccccc2Cl)n1 [Compound 45] | – | 3.1 µM | 118% | 3.1 | – | – | –
18 | COc1cc(NC(=O)c2ccccn2)ccc1-c1noc(-c2ccccc2)n1 [Compound 33] | – | 1.83 µM | 130% | 5.3 | – | – | –
19 | COc1cc(NC(=O)c2nccs2)ccc1-c1noc(-c2ccccc2Cl)n1 [Compound 46] | – | 2.2 µM | 126% | 3.6 | – | – | –
20 | COc1cc(NC(=O)c2ccccn2)ccc1-c1noc(-c2cccc(Cl)c2)n1 [Compound 35] | – | 5.3 µM | 145% | 2.2 | – | – | –
21 | O=C(Nc1ccc(-c2noc(-c3ccccc3)n2)c(F)c1)c1ccccn1 [Compound 55] | – | 2.56 µM | 127% | 3.0 | – | – | –
22 | O=C(Nc1ccc(-c2noc(-c3ccccc3Cl)n2)c(Cl)c1)c1cccc(F)n1 [Compound 50] | – | – | – | – | unable to modulate mGlu4 receptor activity | – | –
